# Experimental data as given in publication PMC7489219 (Molecular Brain, 2020).
# Where a name gives a salt, the structure may show the parent alone.
# System: T1, primary mouse cortical neurons
# T1 construct: primary cortical neurons, DIV 10
# Assay: cells
# Design: Protection from NMDA-induced (30 uM, 10 min) neuronal death; Hoechst nuclear morphology by automated microscopy
# Conditions: Cortical neurone, 20 h, read-out: % inhibition, inhibition of NMDA-induced cell death (protection score), 30 min pre-treatment
# Method: On DIV 10, compounds were applied to the cells reaching an end concentration of 10 μM. Cells were incubated for 30 min at 37 °C, 5% CO2 before adding NMDA (30 μM). Cells were incubated for another 10 min in the incubator, then washed twice with defined minimal medium containing 10 μM of the respective compound and incubated for an additional 20 h before readout. Untreated (no NMDA) and NMDA-only stimulated wells were treated with 0.1% DMSO. […] After 15 min of incubation at room temperature, cells were washed twice with phosphate buffered saline. […] Dead neurons were identified by amorphous or shrunken nuclei using CellProfiler and CellProfiler Analyst software. For all cell death analyses the experimental unit (N) is defined as an independent experiment using an independent neuronal preparation. For each independent experiment, data from 3 replicate wells (i.e., from 36 images), representing an average of 3000 cells was analyzed per condition. The survival rate S was calculated by dividing the number of living cells by the total number of cells. The survival rate was then used to calculate the protection score according to Scompound−Svehicle/Suntreated−Svehicle×100=%protection , where ‘compound’ refers to compound + NMDA treatment, ‘vehicle’ refers to vehicle + NMDA treatment, and ‘untreated’ refers to DMSO control. […] As a proof of principle, we next used our assay to screen two commercially available drug libraries. In these screens, primary cortical cells were incubated with test compounds at 10 μM concentration for 30 min before addition of 30 μM NMDA. After 10 min NMDA treatment, cells were washed with fresh medium and kept in the presence of test compounds for 20 h until assessment of cell viability. […] This library covers structurally diverse drugs from several fields such as oncology, cardiology, immunology, and neurology/psychiatry.
row,Compound,inhibition at 10 µM
1,CC=CC1=C(C(=O)O)N2C(=O)[C@@H](NC(=O)[C@H](N)c3ccc(O)cc3)[C@H]2SC1 (mixture of isomers) [Cefprozil hydrate (Cefzil)],0.674%
2,CCC(C)n1ncn(-c2ccc(N3CCN(c4ccc(OC[C@H]5CO[C@](Cn6cncn6)(c6ccc(Cl)cc6Cl)O5)cc4)CC3)cc2)c1=O (mixture of isomers) [Itraconazole (Sporanox)],2.19%
3,C[N+](C)(C)CC(O)CC(=O)[O-] (racemic) [DL-Carnitine hydrochloride],2.11%
4,CC(C)n1c(/C=C/[C@H](O)C[C@H](O)CC(=O)O)c(-c2ccc(F)cc2)c2ccccc21 (racemic) [Fluvastatin sodium (Lescol)],-2.48%
5,CC(=O)N1CCN(c2ccc(OC[C@@H]3CO[C@@](Cn4ccnc4)(c4ccc(Cl)cc4Cl)O3)cc2)CC1 (racemic) [Ketoconazole],-15.9%
6,C[C@@H](NCCc1ccc(O)cc1)[C@@H](O)c1ccc(O)cc1 (racemic) [Ritodrine hydrochloride (Yutopar)],3.89%
7,COc1cc2c(cc1O)CC[C@@H]1[C@@H]2CC[C@]2(C)[C@@H](O)CC[C@@H]12 [2-Methoxyestradiol],19.8%
8,O=C(O)CCCc1c[nH]c2ccccc12 [3-Indolebutyric acid (IBA)],-1.77%
9,Cc1cc(=O)oc2cc(O)ccc12 [4-Methylumbelliferone (4-MU)],-0.113%
10,NCC(=O)CCC(=O)O [5-Aminolevulinic acid hydrochloride],-1.27%
11,N[C@@H](Cc1c[nH]c2ccc(O)cc12)C(=O)O [5-hydroxytryptophan (5-HTP)],-0.632%
12,CC(=O)C1=C(O)C=C2Oc3c(C(C)=O)c(O)c(C)c(O)c3[C@@]2(C)C1=O [(+)-Usniacin (D-Usnic acid)],-4.28%
13,O=C(O[C@@H]1Cc2c(O)cc(O)cc2O[C@@H]1c1cc(O)c(O)c(O)c1)c1cc(O)c(O)c(O)c1 [(-)-Epigallocatechin gallate],4.13%
14,C/C=C1\[C@H]2C=C(C)C[C@]1(N)c1ccc(=O)[nH]c1C2 [(-)-Huperzine A],-1.76%
15,C[C@@H](NCCCc1cccc(C(F)(F)F)c1)c1cccc2ccccc12 [AMG-073 HCl (Cinacalcet hydrochloride)],-14.8%
16,Nc1ncnc2c1ncn2[C@@H]1O[C@H](COP(=O)(O)OP(=O)(O)OP(=O)(O)O)[C@@H](O)[C@H]1O [ATP (Adenosine-Triphosphate)],0.248%
17,CC(=O)O[C@H]1CC[C@@]2(C)C(=CC[C@@H]3[C@@H]2CC[C@]2(C)C(c4cccnc4)=CC[C@@H]32)C1 [Abiraterone Acetate (CB7630)],-0.808%
18,NC(=O)c1ncn([C@@H]2O[C@H](CO)[C@@H](O)[C@H]2O)c1N [Acadesine],4.99%
19,C[C@H]1O[C@H](O[C@H]2[C@H](O)[C@@H](O)[C@@H](O[C@@H]([C@H](O)[C@@H](O)C=O)[C@H](O)CO)O[C@@H]2CO)[C@H](O)[C@@H](O)[C@@H]1N[C@H]1C=C(CO)[C@@H](O)[C@H](O)[C@H]1O [Acarbose],4.12%
20,CC(=O)N[C@@H](CS)C(=O)O [Acetylcysteine],29%
21,Cc1cnc(C(=O)O)c[n+]1[O-] [Acipimox],-0.00389%
22,Nc1nc2c(ncn2COCCO)c(=O)[nH]1 [Acyclovir (Aciclovir)],-1.44%
23,COc1ccc(-c2ccc3cc(C(=O)O)ccc3c2)cc1[C@]12C[C@H]3C[C@H](C[C@H](C3)C1)C2 [Adapalene],63.6%
24,"CC(C)(C)C(=O)OCOP(=O)(COCCn1cnc2c(N)ncnc21)OCOC(=O)C(C)(C)C [Adefovir Dipivoxil (Preveon, Hepsera)]",18.8%
25,Nc1ncnc2c1ncn2[C@@H]1O[C@H](CO)[C@@H](O)[C@H]1O [Adenosine (Adenocard)],15.3%
26,O=c1[nH]cc(F)c(=O)[nH]1 [Adrucil (Fluorouracil)],-16.3%

row,Compound,inhibition at 10 µM
1,COc1ccc2cccc(CCNC(C)=O)c2c1 [Agomelatine],-12.7%
2,CCCSc1ccc2[nH]c(NC(=O)OC)nc2c1 [Albendazole (Albenza)],28.3%
3,NCCCC(O)(P(=O)(O)O)P(=O)(O)O [Alendronate (Fosamax)],40.1%
4,COc1cc2nc(N(C)CCCNC(=O)C3CCCO3)nc(N)c2cc1OC (stereo not drawn) [Alfuzosin hydrochloride (Uroxatral)],-0.34%
5,COCCCOc1cc(C[C@@H](C[C@H](N)[C@@H](O)C[C@H](C(=O)NCC(C)(C)C(N)=O)C(C)C)C(C)C)ccc1OC [Aliskiren hemifumarate],30.5%
6,Oc1ncnc2[nH]ncc12 [Allopurinol (Zyloprim)],19.8%
7,O=c1[nH]cnc2[nH]ncc12 [Allopurinol Sodium (Aloprim)],21.4%
8,O=C1c2c(O)cccc2[C@H]([C@@H]2O[C@H](CO)[C@@H](O)[C@H](O)[C@H]2O)c2cc(CO)cc(O)c21 [Aloin (Barbaloin)],0.91%
9,CN(C)c1nc(N(C)C)nc(N(C)C)n1 [Altretamine (Hexalen)],-3.75%
10,NC12CC3CC(CC(C3)C1)C2 [Amantadine hydrochloride (Symmetrel)],1.41%
11,CC(NC(C)(C)C)C(=O)c1cccc(Cl)c1 (stereo not drawn) [Amfebutamone (Bupropion)],2.08%
12,N=C(N)NC(=O)c1nc(Cl)c(N)nc1N [Amiloride hydrochloride (Midamor)],-0.812%
13,NCCCCCC(=O)O [Aminocaproic acid (Amicar)],25.5%
14,Cn1c(=O)c2[nH]cnc2n(C)c1=O [Aminophylline (Truphylline)],12%
15,CCOC(=O)C1=C(COCCN)NC(C)=C(C(=O)OC)C1c1ccccc1Cl (stereo not drawn) [Amlodipine besylate (Norvasc)],-2.44%
16,CCC(C)(C)c1ccc(CC(C)CN2C[C@@H](C)O[C@@H](C)C2)cc1 (stereo partly drawn) [Amorolfine Hydrochloride],-45.8%
17,CC1(C)S[C@@H]2[C@H](NC(=O)[C@H](N)c3ccc(O)cc3)C(=O)N2[C@H]1C(=O)O [Amoxicillin (Amox)],-1.15%
18,CC(C)(C#N)c1cc(Cn2cncn2)cc(C(C)(C)C#N)c1 [Anastrozole],3.89%
19,C=C1CC[C@@H]2[C@](C)(CO)[C@H](O)CC[C@@]2(C)[C@@H]1C/C=C1/C(=O)OC[C@H]1O [Andrographolide],-4.01%
20,N#CC1(c2ccc(NC(=O)c3cccnc3NCc3ccncc3)cc2)CCCC1 [Apatinib (YN968D1)],-0.459%
21,O=c1cc(-c2ccc(O)cc2)oc2cc(O)cc(O)c12 [Apigenin],-0.752%
22,COc1cc(C(C)=O)ccc1O [Apocynin (Acetovanillone)],-0.991%
23,C[C@@H](O[C@H]1OCCN(Cc2n[nH]c(=O)[nH]2)[C@H]1c1ccc(F)cc1)c1cc(C(F)(F)F)cc(C(F)(F)F)c1 [Aprepitant (MK-0869)],17.6%
24,"OC[C@H]1O[C@@H](Oc2ccc(O)cc2)[C@H](O)[C@@H](O)[C@@H]1O [Arbutin (Uva, p-Arbutin)]",-0.469%
25,CO[C@H]1O[C@@H]2O[C@@]3(C)CC[C@H]4[C@H](C)CC[C@@H]([C@H]1C)[C@@]24OO3 [Artemether (SM-224)],1.03%
